Test results: patent US11214803B2, “Modulators of YAP1 expression” (Ionis Pharmaceuticals, Inc., priority 2019, dated 2022)
Strand notation (5' to 3'): a small letter for the sugar, then the base; units joined by * are phosphorothioate-linked, units joined directly phosphodiester-linked; [ ] holds rarer units or linkages, { } end groups; capitals alone tell only the bases. k = constrained ethyl (cEt); [5mC] = 5-methylcytosine; d = 2'-deoxy (DNA)

System: Yap1 mRNA
Assay: Antisense inhibition of human Yap1 in A-431 cells by cEt gapmers, single dose (Example 1, RTS4814)
Format: cell-based
Conditions: A-431 cells, 5,000 cells per well, free uptake, 2,000 nM modified oligonucleotide, approx. 48 hours, RTS4814, normalized to RIBOGREEN; Table 3
Protocol: Modified oligonucleotides were designed to target a Yap1 nucleic acid and were tested for their effect on Yap1 mRNA level in vitro. The modified oligonucleotides were tested in a series of experiments that had similar culture conditions. Cultured A-431 cells at a density of 5,000 cells per well were treated using free uptake with 2,000 nM of modified oligonucleotide. After a treatment period of approximately 48 hours, RNA was isolated from the cells and Yap1 mRNA levels were measured by quantitative real-time RTPCR. Human primer probe set RTS4814 (forward sequence […], designated herein as SEQ ID NO.: 11; reverse sequence […], designated herein as SEQ ID NO.: 12; probe sequence […], designated herein as SEQ ID NO.: 13) was used to measure mRNA levels. Yap1 mRNA levels were normalized to total RNA content, as measured by RIBOGREEN®. Results are presented in the tables below as percent control of the amount of Yap1 mRNA relative to untreated control cells (% UTC). The modified oligonucleotides with percent control values marked with an asterisk (*) target the amplicon region of the primer probe set. Additional assays may be used to measure the potency and efficacy of the modified oligonucleotides targeting the amplicon region.
The newly designed modified oligonucleotides in the Tables below were designed as 3-10-3 cEt gapmers. The gapmers are 16 nucleosides in length, wherein the central gap segment comprises of ten 2′-deoxynucleosides and is flanked by wing segments on the 5′ direction and the 3′ direction comprising three nucleosides each. Each nucleoside in the 5′ wing segment and each nucleoside in the 3′ wing segment has a cEt sugar modification. The internucleoside linkages throughout each gapmer are phosphorothioate (P═S) linkages. All cytosine residues throughout each gapmer are 5-methylcytosines.
“Start site” indicates the 5′-most nucleoside to which the gapmer is targeted in the human gene sequence. “Stop site” indicates the 3′-most nucleoside to which the gapmer is targeted human gene sequence. […] Activity of the modified oligonucleotide may be defined in a different experiment.

Substance | YAP1 (% UTC)
715531 (kA*k[5mC]*kA*dA*d[5mC]*d[5mC]*dT*dG*dG*dT*dT*dT*dG*kT*kT*kT; antisense) [Compound 715531] | 94 % UTC
715606 (antisense kA*k[5mC]*k[5mC]*dA*dT*dA*dG*d[5mC]*dA*d[5mC]*dA*dG*dA*kA*kT*kT) [Compound 715606] | 88 % UTC
715423 (k[5mC]*k[5mC]*kA*dT*dG*dT*dT*dG*dT*dT*dG*dT*d[5mC]*kT*kG*kA; antisense) [Compound 715423] | 30 % UTC
715555 (kG*kT*kT*dA*dT*dT*d[5mC]*dA*dG*d[5mC]*dA*dG*d[5mC]*kT*kT*kA; antisense) [Compound 715555] | 21 % UTC
715585 (kA*kA*kG*dG*dT*d[5mC]*dT*dG*dG*dA*dA*d[5mC]*dA*kG*kA*kT; antisense) [Compound 715585] | 73 % UTC
715444 (antisense kT*k[5mC]*k[5mC]*d[5mC]*dT*dG*dT*dG*dG*dG*d[5mC]*dT*d[5mC]*kT*kG*kG) [Compound 715444] | 84 % UTC
715420 (kG*kA*kT*dT*dT*dA*dA*dG*dA*dA*dG*dT*dA*kT*k[5mC]*kT; antisense) [Compound 715420] | 107 % UTC
715486 (antisense kT*kA*k[5mC]*dT*dT*d[5mC]*dA*dT*dA*dG*d[5mC]*dT*dT*kA*kT*kA) [Compound 715486] | 27 % UTC
715435 (antisense kG*kG*kT*d[5mC]*dT*dT*dG*dT*dT*d[5mC]*dT*dT*dA*kT*kG*kG) [Compound 715435] | 36 % UTC

Same assay, conditions: Table 1; A-431 cells, free uptake, 2,000 nM, approximately 48 hours, RTS4814; Yap1 mRNA relative to untreated control cells

Substance | YAP1 (% UTC)
715613 (antisense kA*kT*kT*dA*d[5mC]*dT*dT*dT*dA*dA*dG*d[5mC]*d[5mC]*kA*k[5mC]*kA) [Compound 715613] | 85 % UTC
715493 (antisense kG*kT*kG*d[5mC]*dT*dA*dG*d[5mC]*dT*dG*dG*dT*dG*k[5mC]*k[5mC]*kA) [Compound 715493] | 62 % UTC
715622 (antisense kA*kG*kT*dA*dA*dA*dA*dA*dA*dT*dA*dA*dG*kA*k[5mC]*kG) [Compound 715622] | 137 % UTC
715625 (antisense kA*kT*kT*dG*d[5mC]*d[5mC]*dT*dA*dA*dG*dA*dG*dT*kA*kA*kA) [Compound 715625] | 99 % UTC
715469 (antisense kT*kA*kG*d[5mC]*dT*dT*dG*dG*dT*dG*dG*d[5mC]*dA*kG*k[5mC]*k[5mC]) [Compound 715469] | 94 % UTC
715511 (antisense kT*k[5mC]*k[5mC]*dT*dG*dA*d[5mC]*dA*dT*dT*dT*dT*dG*kG*kA*kG) [Compound 715511] | 107 % UTC

Same assay, conditions: Table 2; A-431 cells, free uptake, 2,000 nM, approximately 48 hours, RTS4814; Yap1 mRNA relative to untreated control cells

Substance | YAP1 (% UTC)
715578 (kT*kG*kG*d[5mC]*dA*dT*dT*d[5mC]*dA*d[5mC]*dA*dG*dA*kG*kT*kT; antisense) [Compound 715578] | 50 % UTC
715563 (kA*kG*k[5mC]*dA*d[5mC]*dA*d[5mC]*dA*dA*d[5mC]*dT*d[5mC]*dA*kG*kA*k[5mC]; antisense) [Compound 715563] | 86 % UTC
715494 (antisense kG*kA*kG*dG*dT*dG*d[5mC]*dT*dA*dG*d[5mC]*dT*dG*kG*kT*kG) [Compound 715494] | 46 % UTC
715488 (antisense k[5mC]*kT*kA*dT*dT*dA*d[5mC]*dT*dT*d[5mC]*dA*dT*dA*kG*k[5mC]*kT) [Compound 715488] | 66 % UTC
715623 (antisense k[5mC]*k[5mC]*kT*dA*dA*dG*dA*dG*dT*dA*dA*dA*dA*kA*kA*kT) [Compound 715623] | 113 % UTC
715551 (kA*kT*kA*dG*dG*dA*dA*dG*dT*dT*dG*dT*dT*kG*kA*k[5mC]; antisense) [Compound 715551] | 82 % UTC
715626 (antisense kA*k[5mC]*k[5mC]*dT*dG*dA*d[5mC]*dA*dT*dT*dT*dT*dG*kG*kA*kG) [Compound 715626] | 64 % UTC
715461 (antisense kT*k[5mC]*kA*dT*d[5mC]*dT*d[5mC]*dG*dA*dG*dA*dG*dT*kG*kA*kT) [Compound 715461] | 153 % UTC
